# According to patent US6469052B2, “Compounds for the photodecontamination of pathogens in blood” (Cerus Corporation, priority 1993, dated 2002):
# Where two headings read alike, the source gives them in different places.
# Tests used:
# [1] = system: Salmonella typhimurium TA102; assay: Ames assay (dark mutagenicity), strain TA102; conditions: TA102 at 500 μg/plate
# Excerpt: (§1) The second property that is important in testing a compound for use in methods of the present invention is mutagenicity. The most widely used mutagen/carcinogen screening assay is the Ames test. This assay is described by D. M. Maron and B. N. Ames in Mutation Research 113: 173 ( 1983) and a specific screen is described in detail in Example 17, below. The Ames test utilizes several unique strains of Salmonella typhimurium that are histidine- dependent for growth and that lack the usual DNA repair enzymes. The frequency of normal mutations that render the bacteria independent of histidine (i.e., the frequency of spontaneous revertants) is low. The test allows one to evaluate the impact of a compound on this revertant frequency.
# (§2) In this example the compounds of the present invention are tested for their dark mutagenicity using an Ames assay. The procedures used for the Salmonella mutagenicity test as described in detail by Maron and Ames were followed exactly. Maron, D. M. and B. N. Ames, Mutation Research 113: 173 ( 1983). A brief description for each procedure is given here. The tester strains TA97a, TA98, TA100, TA102, TA1537 and TA1538 were obtained from Dr. Ames. TA97a, TA98, TA1537 and TA1538 are frameshift tester strains. TA100 and TA102 are base-substitution tester strains. Upon receipt each strain was cultured under a variety of conditions to confirm the genotypes specific to the strains.
# (§3) The first tests done with the strains were to determine the range of spontaneous reversion for each of the strains. With each mutagenicity experiment the spontaneous reversion of the tester strains to histidine independence was measured and expressed as the number of spontaneous revertants per plate. This served as the background controls.
# (§4) For all experiments, the pre-incubation procedure was used. In this procedure one vial of each tester strain was thawed and 20 μL of this culture was added to 6 mL of Oxoid Nutrient Broth #2. This solution was allowed to shake for 10 hours at 37° C. In the pre-incubation procedure, 0.1 mL of this overnight culture was added to each of the required number of sterile test tubes. To half of the tubes 0.5 mL of a 10% S-9 solution containing Aroclor 1254 induced rat liver extract (Molecular Toxicology Inc., Annapolis, Md.), and MgCl2, KCl, glucose-6-phosphate, NADP, and sodium phosphate buffer (Sigma, St. Louis, Mo.) were added. To the other half of the tubes 0.5 mL of 0.2M sodium phospate buffer, pH 7.4, was used in place of the S-9 mixture (the -S9 samples). Finally 0.1 mL of the test solution containing either 0, 0.1, 0.5, 1, 5, 10, 50, 100, 250, or 500 μg/mL of the test compound was added. The 0.7 mL mixture was vortexed and then pre-incubated while shaking for 20 minutes at 37° C. After shaking, 2 mL of molten top agar supplemented with histidine and biotin were added to the 0.7 mL mixture and immediately poured onto a minimal glucose agar plate (volume of base agar was 20 mL). The top agar was allowed 30 minutes to solidify and then the plates were inverted and incubated for 44 hours at 37° C. After incubation the number of revertant colonies on each plate were counted. […] (“n” represents the number of replicates performed for each data point.)
# (§5) Maron and Ames (1983) describe the conflicting views with regard to the statisical treatment of data generated from the test.
# [2] = system: Chinese hamster ovary (CHO) cells; assay: In vitro genotoxicity screen in CHO cells; format: cell-based; conditions: approximately 3 hours exposure in the dark, dilutions 1-1000 μg/ml
# Excerpt: The positive control was methylmethane sulfonate.
# Coverslips were mounted with Permount.
# [3] = system: Salmonella typhimurium TA1538; assay: Ames assay (dark mutagenicity), strain TA1538
# Excerpt: as §1, §2, §3, §4, §5
# [4] = system: Salmonella tester strains TA97a, TA98, TA100, TA102, TA1537 and TA1538; assay: Ames assay, overall assessment over the tester strains; conditions: strains tested: TA100 and TA1538, ±S9, 5 and 10 μg/plate
# Excerpt: as §1, §2, §3
# For all experiments, the pre-incubation procedure was used. In this procedure one vial of each tester strain was thawed and 20 μL of this culture was added to 6 mL of Oxoid Nutrient Broth #2. This solution was allowed to shake for 10 hours at 37° C. In the pre-incubation procedure, 0.1 mL of this overnight culture was added to each of the required number of sterile test tubes. To half of the tubes 0.5 mL of a 10% S-9 solution containing Aroclor 1254 induced rat liver extract (Molecular Toxicology Inc., Annapolis, Md.), and MgCl2, KCl, glucose-6-phosphate, NADP, and sodium phosphate buffer (Sigma, St. Louis, Mo.) were added. To the other half of the tubes 0.5 mL of 0.2M sodium phospate buffer, pH 7.4, was used in place of the S-9 mixture (the -S9 samples). Finally 0.1 mL of the test solution containing either 0, 0.1, 0.5, 1, 5, 10, 50, 100, 250, or 500 μg/mL of the test compound was added. […] After incubation the number of revertant colonies on each plate were counted. […]
# [5] = system: Salmonella typhimurium TA100
# Excerpt: as §1, §2, §3, §4, §5
# [6] = system: Duck Hepatitis B Virus (DHBV); assay: Inactivation of DHBV in platelet concentrate, PCR amplification readout; conditions: 5J/CM^2 UVA
# Protocol: This example describes the protocol for inactivation of Duck Hepatitis B Virus (DHBV), a model for Hepatitis B Virus, using compounds of the present invention. DHBV in duck yolk was added to platelet concentrate (PC) to a final concentration of 2×10^7 particles per mL and mixed by gentle rocking for ≧15 min. […] Samples, including controls without added psoralen, were irradiated with 5J/CM^2 UVA, with mixing at 1 J/cm^2 increments. After irradiation, leukocytes and platelets were separated from virus by centrifugation. […] Samples were extracted with phenol-chloroform and chloroform, followed by ethanol precipitation. […] PCR amplicons were generated using primers pairs DCD03/DCD05 (127 bp), DCD03/DCD06 (327 bp) and DCD03/DCD07 (1072 bp). PCR was performed in a standard PCR buffer containing 0.2 mM each deoxyribonucleoside 5′-triphosphates (dATP, dGTP, dCTP, and dTTP), […], and 0.5 units Taq polymerase per […]. 30 cycles of amplification were performed with the following thermal profile: 95° C. 30 sec, 60° C. 30 sec, 72° C. 1 min. The amplification was followed by a 7 min incubation at 72° C. to yield full length products. […] was added at an amount of […] in order to detect and quantify the resulting products. Products were separated by electrophoresis on denaturing polyacrylamide slab gels and counted. The absence of signal in a given reaction was taken to indicate effective inactivation of DHBV.
# R17 = R17 bacteriophage inactivation assay (r-17 screen); format: cell-based, bacteriophage R17 (grown in Hfr 3000 bacteria)
# Protocol: An r-17 bacteriophage assay was used in this example to predict pathogen inactivation efficiency and to determine nucleic acid binding of the photoreactive binding compounds of the present invention. In the r-17 assay, the bacteriophage was placed in a solution with each compound tested and was then irradiated. The ability of the phage to subsequently infect bacteria and inhibit their growth was measured. The bacteriophage was selected for its relatively accessible nucleic acid such that the culture growth inhibition would accurately reflect nucleic acid damage by the test compounds. The bacteriophage assay for nucleic acid binding to test compounds offers a safe and inexpensive procedure to identify compounds likely to display efficient pathogen inactivation.
# The R17 was grown up in Hfr 3000 bacteria, approximate titer 5 ×10^11. (R17 and Hfr 3000 were obtained from American Tissue Culture Collection (ATCC), Washington, D.C.) The R17 phage stock was added to a solution of 15% fetal bovine serum in Dulbecco's Modified Eagles Medium (DMEM) to a final phage concentration of 10^9/mL. An aliquot (0.5 mL) was transferred to a 1.5 mL snap-top polyethylene tube. An aliquot (0.004-0.040 mL) of the test compound stock solution prepared in water, ethanol or dimethylsulfoxide at 0.80-8.0 mM was added to the tube. Compounds were tested at concentrations between 4 μM and 320 μM. […] The tubes were placed in a light device as described in EXAMPLE 1 and irradiated for between 1 and 10 minutes. Sterile 13 mL dilution tubes were prepared; each test compound required one tube with 0.4 mL of Luria broth (LB) and five tubes containing 0.5 mL of LB broth. To make the dilutions, a 0.100 mL aliquot of the irradiated solution of phage and test compound was added to the first dilution tube of 0.4 mL of media then 0.020 mL of this solution was added to the second tube of 0.5 mL medium (1:25). The second solution was then diluted serially (1:25) into the remaining tubes. To each diluted sample was added 0.050 mL of Hfr 3000 bacteria cultured overnight and 3 mL of molten LB top agar and the mixed materials were poured onto LB broth plates. After the top agar hardened, the plates were incubated at 37° C. overnight. The plaque forming units were then counted the following morning and the titer of the phage remaining after phototreatment was calculated based on the dilution factors.
# The following controls were run: the “phage only” in which phage was not treated with test compound and not irradiated (listed as “starting titer” in the tables below); the “UV only” in which the phage was irradiated in the absence of test compound; and the “dark” control in which the phage/test compound solution was not irradiated before it was diluted and plated.
# Compounds of the present invention were also tested at a constant concentration for varying doses of UV light. Three sets of 1.5 mL tubes were prepared containing 0.6 mL aliquots of R17 in DMEM (prepared as described above). The compound tested was added at the desired concentration and the samples were vortexed. The samples were then irradiated at intervals of 1.0 J/cm^2, until 3.0 J/cm^2 was reached. Between each 1.0 J/cm^2 interval, 100 μL was removed from each sample and placed in the first corresponding dilution tube, then five sequential dilutions were performed for each compound tested, at all 3 irradiation doses, as described above in this example.
# Then 50 μL of Hfr 3000 bacteria was added to each tube, 3 mL of top agar was added and the tube contents were vortexed. The contents of each tube was poured into its own LB plate and the plates were incubated overnight at 37° C. Plaques were counted by visual inspection the following morning.
smiles,measurement,setting,value
"COc1c2occc2cc2ccc(=O)oc12 [Compound 8-MOP, 8-Methoxypsoralen]",mutagenic response detected,[1],weak base-substitution mutagen
"Cc1oc2c(CN)c3oc(=O)cc(C)c3cc2c1C [8-aminomethyl-4,4′, 5′-trimethylpsoralen, reference compound]",genotoxic (toxic) concentration,[2],10 µg/mL
"Cc1oc2c(C)c3oc(=O)cc(C)c3cc2c1COCCCN [Compound 4, 4′-(5-amino-2-oxa)pentyl-4,5′,8-trimethylpsoralen]",revertants per plate,"[3]; TA1538 −S9, 5 μg/plate",−2
same,revertants per plate,"[3]; TA1538 −S9, 10 μg/plate",−2
same,mutagenicity (overall),[4],no mutagenicity
same,revertants per plate,"[5]; TA100 +S9, 5 μg/plate",−10
same,revertants per plate,"[5]; TA100 +S9, 10 μg/plate",−3
Cc1oc2c(C)c3oc(=O)cc(C)c3cc2c1COCCN [Compound S-59],PCR amplification of the 1072 bp DHBV amplicon,"[6]; all concentrations (35, 70, and 100 mM)",complete inhibition of PCR
same,"inhibition of PCR of the smaller DHBV amplicons (127 bp, 327 bp) compared with AMT",[6]; same concentrations,inhibited PCR of the smaller amplicons better than did AMT
"Cc1oc2c(C)c3oc(=O)cc(C)c3cc2c1CNCCN [Compound 1, 4′-(4-amino-2-aza)butyl-4,5′,8-trimethylpsoralen]",mutagenic response detected,[3]; TA1538 at 5 μg/plate in the presence of S9,weak frameshift mutagen
same,revertants per plate,"[3]; TA1538 −S9, 5 μg/plate",10
same,revertants per plate,"[3]; TA1538 −S9, 10 μg/plate",12
same,R17 inactivation efficiency compared with 8-MOP,"R17; 32 μM, 1 minute irradiation",much higher R17 inactivation efficiency than does 8-MOP
same,LOG TITER,"R17; experiment 1, 32 μM cmpd, 1′ uva, phage only titer 7.7",<1 log
same,LOG TITER,"R17; experiment 1, 32 μM cmpd, 10′ uva, phage only titer 7.7",<1 log
same,LOG TITER,"R17; experiment 1, compound only (32 μM), no uva, phage only titer 7.7",7.6 log
same,LOG TITER,"R17; experiment 2, 3.2 μM cmpd, 1′ uva, phage only titer 7.8",6.9 log
same,LOG TITER,"R17; experiment 2, 3.2 μM cmpd, 10′ uva, phage only titer 7.8",6.1 log
same,LOG TITER,"R17; experiment 2, compound only (3.2 μM), no uva, phage only titer 7.8",7.7 log
same,LOG TITER,"R17; experiment 3, 4 μM cmpd, 1′ uva, phage only titer 7.3",6.3 log
same,LOG TITER,"R17; experiment 3, 8 μM cmpd, 1′ uva, phage only titer 7.3",5.6 log
same,LOG TITER,"R17; experiment 3, 16 μM cmpd, 1′ uva, phage only titer 7.3",3.9 log
same,LOG TITER,"R17; experiment 3, compound only (16 μM), no uva, phage only titer 7.3",7.3 log
same,revertants per plate,"[5]; TA100 +S9, 5 μg/plate",−24
same,revertants per plate,"[5]; TA100 +S9, 10 μg/plate",−22
same,mutation in the TA100 strain,"[5]; TA100, with and without S9","displayed mutation in the TA100 strain, but only in the absence of S9"
